The NIST ThermoML archive (doi:10.1016/j.jct.2013.10.034)

Experiments:
[1] = Liquid; for viscosity / mass density: 100 kPa; for viscosity: Falling or rolling sphere viscometry; for mass density: Vibrating tube method; for vapor or sublimation pressure: Ebulliometric method (Recirculating still)
[2] = xn = mol fraction of the nth substance listed; conditions: 100 kPa, Liquid, x2 = 0; for viscosity: Falling or rolling sphere viscometry; for mass density: Vibrating tube method

CCCC[N+]1(C)CCCCC1.N#C[N-]C#N [1-butyl-1-methylpiperidinium dicyanamide]
[1]
Conditions	mass density [kg/m3]	viscosity [mPa·s]
298.15 K	1016.13	123.3
303.15 K	1012.98	92.97
308.15 K	1010.65	75.58
313.15 K	1007.92	60.93
318.15 K	1005.2	49.79
323.15 K	1002.47	41.31
328.15 K	999.77	34.72
333.15 K	997.08	29.45
338.15 K	994.39	23.31
343.15 K	991.72	21.98

CCCC[N+]1(C)CCCC1.N#CN=C=[N-] [1-butyl-1-methylpyrrolidinium dicyanamide]
[1]
Conditions	mass density [kg/m3]	viscosity [mPa·s]
298.15 K	1019.2	34.74
303.15 K	1016.38	29.33
308.15 K	1013.58	25.09
313.15 K	1010.79	21.7
318.15 K	1008	18.95
323.15 K	1005.23	16.72
328.15 K	1002.48	14.84
333.15 K	999.74	13.28
338.15 K	997	11.96
343.15 K	994.28	10.82

O [water]
[1]
Conditions	mass density [kg/m3]	vapor or sublimation pressure [kPa]	viscosity [mPa·s]
298.15 K	–	–	0.89
303.15 K	–	–	0.808
308.15 K	–	–	0.74
313.15 K	992.15	–	0.681
318.15 K	990.14	–	0.63
323.15 K	987.93	–	0.593
328.15 K	985.61	15.8	0.56
333.15 K	983.17	–	0.528
338.15 K	980.3	25.1	0.5
343.15 K	978.1	–	0.473
348.15 K	–	38.6	–
358.15 K	–	57.9	–
368.15 K	–	84.4	–

O [water] + CCCC[N+]1(C)CCCC1.N#CN=C=[N-]
[2]
Conditions	mass density [kg/m3]	viscosity [mPa·s]
298.15 K	–	0.89
303.15 K	–	0.808
308.15 K	–	0.74
313.15 K	992.15	0.681
318.15 K	990.14	0.63
323.15 K	987.93	0.593
328.15 K	985.61	0.56
333.15 K	983.17	0.528
338.15 K	980.3	0.5
343.15 K	978.1	0.473

O [water] + CCCC[N+]1(C)CCCCC1.N#C[N-]C#N
[2]
Conditions	mass density [kg/m3]	viscosity [mPa·s]
298.15 K	–	0.89
303.15 K	–	0.808
308.15 K	–	0.74
313.15 K	992.15	0.681
318.15 K	990.14	0.63
323.15 K	987.93	0.593
328.15 K	985.61	0.56
333.15 K	983.17	0.528
338.15 K	980.3	0.5
343.15 K	978.1	0.473
